According to ChEMBL document CHEMBL1201862, “PubChem BioAssay data set” (2004):
Calls of active or inactive are those of the source.

Tests used:
[1] = system: Candida albicans; assay: Candida growth reduction in fluconazole presence – CaCi-2 strain, Alamar Blue, dry powder, set 2, antifungal resistance reversal project, dose response (AID 488930); format: functional, organism-based
[2] = system: Candida albicans; assay: C. albicans growth inhibition with fluconazole – CaCi-2 strain, Alamar Blue, dry powder, set 4, dose response (AID 488943); format: functional, organism-based
[3] = system: Candida albicans; assay: fluconazole-resistant Candida strain growth inhibitors – CaCi-8 strain, dry powder, set 4, dose response (AID 488950); format: functional, organism-based
[4] = system: Candida albicans; assay: resistant Candida growth with fluconazole co-treatment – CaCi-8 strain, Alamar Blue, dry powder, set 2, dose response (AID 488909); format: functional, organism-based
[5] = biological target: T1, Hexokinase-1 (Homo sapiens, UniProt P19367); assay: SAR analysis of small molecule inhibitors of hexokinase domain containing I (HKDC1) in the hexokinase 1 selectivity assay. [Related pubchem assays (depositor defined):AID493160, AID493190]; format: functional
T1 sequence (P19367 whole entry): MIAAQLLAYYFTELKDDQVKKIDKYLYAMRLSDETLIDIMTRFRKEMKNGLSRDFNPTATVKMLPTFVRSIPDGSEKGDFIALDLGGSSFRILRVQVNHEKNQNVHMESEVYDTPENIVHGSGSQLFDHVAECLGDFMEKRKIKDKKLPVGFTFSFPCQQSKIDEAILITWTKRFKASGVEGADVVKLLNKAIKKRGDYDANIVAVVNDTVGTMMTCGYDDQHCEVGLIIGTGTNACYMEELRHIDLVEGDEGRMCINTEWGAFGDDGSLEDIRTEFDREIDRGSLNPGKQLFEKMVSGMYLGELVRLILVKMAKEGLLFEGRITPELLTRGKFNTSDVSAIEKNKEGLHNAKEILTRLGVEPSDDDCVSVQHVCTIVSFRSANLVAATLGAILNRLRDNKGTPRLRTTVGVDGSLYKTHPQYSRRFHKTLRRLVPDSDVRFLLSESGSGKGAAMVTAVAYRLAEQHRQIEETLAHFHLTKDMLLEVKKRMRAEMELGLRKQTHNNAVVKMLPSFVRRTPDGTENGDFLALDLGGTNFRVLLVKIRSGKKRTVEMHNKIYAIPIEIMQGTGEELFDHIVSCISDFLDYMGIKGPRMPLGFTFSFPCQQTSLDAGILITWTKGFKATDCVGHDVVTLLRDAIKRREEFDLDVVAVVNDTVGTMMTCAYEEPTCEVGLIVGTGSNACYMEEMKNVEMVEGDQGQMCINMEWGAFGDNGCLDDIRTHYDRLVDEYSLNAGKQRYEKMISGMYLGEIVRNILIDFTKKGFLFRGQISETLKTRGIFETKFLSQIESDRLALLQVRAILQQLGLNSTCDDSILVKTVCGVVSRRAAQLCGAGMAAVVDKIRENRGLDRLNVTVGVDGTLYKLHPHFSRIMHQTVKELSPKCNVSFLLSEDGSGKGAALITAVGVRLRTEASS

[6] = viability of BHK-21 cells – cell-based, secondary screen, cytotoxicity control for flavivirus guanylyltransferase probe project (AID 624078); format: functional
[7] = biological target: T2, Hexokinase HKDC1 (Homo sapiens, UniProt Q2TB90); assay: SAR analysis of small molecule inhibitors of hexokinase domain containing I (HKDC1). [Related pubchem assays (depositor defined):AID493160, AID493190]; format: functional
T2 sequence (Q2TB90 whole entry): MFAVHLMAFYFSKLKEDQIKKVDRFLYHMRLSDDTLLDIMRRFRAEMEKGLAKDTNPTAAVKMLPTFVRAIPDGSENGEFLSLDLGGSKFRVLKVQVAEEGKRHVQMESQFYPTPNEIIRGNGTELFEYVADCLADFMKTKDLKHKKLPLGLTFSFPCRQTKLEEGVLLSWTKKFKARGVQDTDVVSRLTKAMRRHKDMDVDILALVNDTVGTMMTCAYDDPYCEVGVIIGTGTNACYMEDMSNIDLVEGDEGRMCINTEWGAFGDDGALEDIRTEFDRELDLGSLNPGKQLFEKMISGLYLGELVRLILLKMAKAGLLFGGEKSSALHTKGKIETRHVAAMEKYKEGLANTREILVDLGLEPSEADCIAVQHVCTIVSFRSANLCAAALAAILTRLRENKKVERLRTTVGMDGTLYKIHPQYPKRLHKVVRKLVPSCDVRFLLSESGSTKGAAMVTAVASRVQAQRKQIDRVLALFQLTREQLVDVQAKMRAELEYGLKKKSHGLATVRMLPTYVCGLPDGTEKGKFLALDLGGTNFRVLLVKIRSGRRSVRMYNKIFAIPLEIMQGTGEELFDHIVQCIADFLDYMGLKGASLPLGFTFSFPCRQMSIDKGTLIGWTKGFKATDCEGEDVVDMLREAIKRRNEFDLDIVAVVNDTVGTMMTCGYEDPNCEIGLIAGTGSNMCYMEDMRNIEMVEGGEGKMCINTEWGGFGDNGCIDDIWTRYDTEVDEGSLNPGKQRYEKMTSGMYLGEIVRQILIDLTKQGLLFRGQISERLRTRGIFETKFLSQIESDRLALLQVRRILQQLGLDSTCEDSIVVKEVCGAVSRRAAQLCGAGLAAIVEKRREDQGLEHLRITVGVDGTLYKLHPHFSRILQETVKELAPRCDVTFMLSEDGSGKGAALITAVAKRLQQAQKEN

[8] = system: NIH3T3; assay: mammalian cell viability counter-check – Alamar Blue, fluconazole, dry powder, cytotoxicity control for antifungal drug resistance project, dose response (AID 488809); format: functional, cell-based; settings: Mus musculus
[9] = biological target: T3, High affinity choline transporter 1 (Homo sapiens, UniProt Q9GZV3); assay: human choline transporter potentiators, potency – cell-based, 10-point CRC, membrane potential dye, dose response (AID 602376); format: functional
T3 sequence (Q9GZV3 whole entry): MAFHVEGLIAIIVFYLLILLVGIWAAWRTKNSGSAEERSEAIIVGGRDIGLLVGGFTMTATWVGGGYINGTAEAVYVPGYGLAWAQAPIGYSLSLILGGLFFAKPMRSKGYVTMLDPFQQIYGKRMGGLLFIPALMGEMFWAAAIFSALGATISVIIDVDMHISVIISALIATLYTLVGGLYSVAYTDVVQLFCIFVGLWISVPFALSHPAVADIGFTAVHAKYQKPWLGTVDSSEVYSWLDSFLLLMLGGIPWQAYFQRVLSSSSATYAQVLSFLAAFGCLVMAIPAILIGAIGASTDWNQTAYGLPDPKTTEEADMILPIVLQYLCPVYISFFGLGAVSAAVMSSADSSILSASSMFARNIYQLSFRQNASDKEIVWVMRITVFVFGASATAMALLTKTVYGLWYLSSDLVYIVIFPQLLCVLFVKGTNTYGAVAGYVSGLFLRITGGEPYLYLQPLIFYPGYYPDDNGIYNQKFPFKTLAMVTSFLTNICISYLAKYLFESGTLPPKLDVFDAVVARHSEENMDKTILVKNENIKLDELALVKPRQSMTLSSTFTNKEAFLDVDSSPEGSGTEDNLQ

[10] = system: H4; assay: Luminescence Cell-Based Dose Response HTS to Identify Activators of 5'UTR Stem-Loop Driven Prion Protein mRNA Translation in H4 Neuroglioblastoma Cells. [Related pubchem assays: 1829 (Project Summary), 1814 (Primary HTS)]; format: functional; settings: Homo sapiens
[11] = Luminescence Cell-Based Dose Response HTS to Identify Activators of Luciferase Translation or Activity in H4 […] Cells. [Related pubchem assays: 1829 (Project Summary), 1814 (Primary HTS)]; format: functional
[12] = biological target: T4, Phospholipase D2 (Homo sapiens, UniProt O14939); assay: PLD2 purified enzyme concentration response. [Related pubchem assays (depositor defined):AID588854]; format: functional
T4 sequence (O14939 whole entry): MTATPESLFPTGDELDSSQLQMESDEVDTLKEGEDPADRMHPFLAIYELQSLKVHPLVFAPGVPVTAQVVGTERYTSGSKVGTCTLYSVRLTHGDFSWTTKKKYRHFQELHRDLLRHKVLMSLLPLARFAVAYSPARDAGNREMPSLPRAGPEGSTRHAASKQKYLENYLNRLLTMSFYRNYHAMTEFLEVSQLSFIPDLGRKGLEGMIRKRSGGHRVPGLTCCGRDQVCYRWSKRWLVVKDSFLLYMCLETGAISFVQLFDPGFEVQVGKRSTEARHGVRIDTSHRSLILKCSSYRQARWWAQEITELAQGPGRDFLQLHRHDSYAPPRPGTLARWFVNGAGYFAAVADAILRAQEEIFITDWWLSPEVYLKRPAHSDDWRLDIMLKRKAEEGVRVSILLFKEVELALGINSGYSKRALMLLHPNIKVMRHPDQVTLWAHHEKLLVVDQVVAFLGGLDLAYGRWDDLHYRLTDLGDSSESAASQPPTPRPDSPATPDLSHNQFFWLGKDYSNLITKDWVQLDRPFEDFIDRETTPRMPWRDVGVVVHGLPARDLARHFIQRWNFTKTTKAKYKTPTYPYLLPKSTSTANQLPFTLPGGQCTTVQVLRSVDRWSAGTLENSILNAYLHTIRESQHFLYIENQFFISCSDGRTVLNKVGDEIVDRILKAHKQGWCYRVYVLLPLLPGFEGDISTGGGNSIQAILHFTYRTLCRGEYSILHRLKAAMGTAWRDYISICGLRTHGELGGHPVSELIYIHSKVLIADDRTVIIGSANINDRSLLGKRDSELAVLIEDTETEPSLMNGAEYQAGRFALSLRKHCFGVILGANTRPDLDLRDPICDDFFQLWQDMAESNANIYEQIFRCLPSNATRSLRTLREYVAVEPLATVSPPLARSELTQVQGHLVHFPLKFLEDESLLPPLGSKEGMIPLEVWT

[13] = biological target: T5, Phospholipase D1 (Homo sapiens, UniProt Q13393); assay: PLD1 purified enzyme concentration response. [Related pubchem assays (depositor defined):AID588854]; format: functional
T5 sequence (Q13393 whole entry): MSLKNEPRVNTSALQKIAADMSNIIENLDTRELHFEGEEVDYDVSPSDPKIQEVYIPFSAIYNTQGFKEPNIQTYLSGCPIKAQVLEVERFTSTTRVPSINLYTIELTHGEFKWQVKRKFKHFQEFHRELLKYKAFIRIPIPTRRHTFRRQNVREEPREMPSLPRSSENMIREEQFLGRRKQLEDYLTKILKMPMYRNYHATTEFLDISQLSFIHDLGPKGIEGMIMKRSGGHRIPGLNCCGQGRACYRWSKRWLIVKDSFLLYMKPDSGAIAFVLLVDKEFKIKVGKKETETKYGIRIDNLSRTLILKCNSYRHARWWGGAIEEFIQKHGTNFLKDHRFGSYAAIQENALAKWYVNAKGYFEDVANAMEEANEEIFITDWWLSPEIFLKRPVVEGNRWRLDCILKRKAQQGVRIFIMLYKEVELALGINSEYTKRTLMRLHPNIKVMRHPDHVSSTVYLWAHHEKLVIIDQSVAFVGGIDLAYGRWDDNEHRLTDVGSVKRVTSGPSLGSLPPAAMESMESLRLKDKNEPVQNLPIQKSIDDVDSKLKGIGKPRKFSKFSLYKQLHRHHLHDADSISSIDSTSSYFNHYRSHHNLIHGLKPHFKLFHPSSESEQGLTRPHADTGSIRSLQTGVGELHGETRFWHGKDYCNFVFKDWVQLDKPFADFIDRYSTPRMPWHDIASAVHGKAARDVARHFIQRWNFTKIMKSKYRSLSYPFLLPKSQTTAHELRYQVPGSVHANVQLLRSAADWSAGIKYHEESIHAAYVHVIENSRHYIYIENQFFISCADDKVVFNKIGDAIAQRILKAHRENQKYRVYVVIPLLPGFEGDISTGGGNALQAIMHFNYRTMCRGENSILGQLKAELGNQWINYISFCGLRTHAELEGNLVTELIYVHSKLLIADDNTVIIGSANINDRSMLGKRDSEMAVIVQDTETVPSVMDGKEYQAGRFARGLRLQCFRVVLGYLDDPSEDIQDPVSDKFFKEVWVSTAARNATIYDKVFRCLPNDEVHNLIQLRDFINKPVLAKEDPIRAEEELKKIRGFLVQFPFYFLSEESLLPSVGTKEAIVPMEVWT

[14] = biological target: T4, Phospholipase D2; assay: cellular phospholipase D2 inhibition IC50 – cell-based, dose response (AID 602147); format: functional;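 further: cellular assay in HEK293 cells overexpressing GFP-tagged PLD2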

O=C(c1ccc(Cl)cc1)N1CCN(c2ccnc3ccc(Cl)cc23)CC1
AC50 [1]: < 0.8 µM (active)
AC50 [2]: 0.397 µM (active)
AC50 [3]: 1.47 µM (active)
AC50 [4]: 9.92 µM (active)

O=C(O)CSc1cc(NS(=O)(=O)c2ccc(F)cc2)c2ccccc2c1O
IC50 [5]: 40.3 µM (inactive)
CC50 [6]: 6.86 µM (active)
IC50 [7]: 5.02 µM (active)

O=S(=O)(c1ccc(Cl)cc1)N1CCN(c2ccnc3cc(Cl)ccc23)CC1
AC50 [8]: 27.7 µM (active)

CCC1=[N+](CC(=O)c2ccc(C)cc2)CCn2c(C)ccc21
EC50 [9]: 13 µM (active)
EC50 [10]: 28.3 µM (active)
EC50 [11]: > 120 µM (not active)

O=C(NCCN1CCC2(CC1)C(=O)NCN2c1ccc(F)c(F)c1)c1cnc2ccccc2c1
IC50 [12]: 0.2 µM (active)
IC50 [13]: 5.48 µM (active)
IC50 [14]: 0.069 µM (active)
